What was measured:
[1] = system: allergic reactions induced by the antigen-antibody interaction; experiment: PCA test (Ovary), antiallergic activity on rats; type: in vivo; settings: for ED50: Rattus norvegicus, iv, rats
Description: The test is carried out by the PCA test-method (Ovary: J. Immun. 81, 355, 1958) and the Church-test (British J. Pharm. 46, 56-66, 1972; Immunology 29, 527-534, 1975) and as a reference substance disodium chromoglycate is used. The test was carried out on rats.

[2] = system: allergic symptoms; settings: oral / inhaler; background statement; cited from earlier work

SMILES: CCOc1ccc(NN=C2CCC(C)n3c2ncc(C(=O)O)c3=O)cc1 (racemic) [(±)-9-(4-ethoxyphenyl-hydrazono)-6-methyl-4-oxo-6,7,8,9-tetrahydro-4H--pyrido[1,2-a]pyrimidine-3-carboxylic acid]
- ED50 [1]: 0.87 µmol/kg

SMILES: Cc1cccc(NN=C2CCC(C)n3c2ncc(C(=O)O)c3=O)c1 (centres unmarked) [6-methyl-9-(3-methylphenyl-hydrazono)-4-oxo-6,7,8,9-tetrahydro-4H--pyrido[1,2-a]-pyrimidine-3-carboxylic acid]
- ED50 [1]: 0.42 µmol/kg

SMILES: CC1CCC(=NNc2cccc([N+](=O)[O-])c2)c2ncc(C(=O)O)c(=O)n21 (centres unmarked) [6-methyl-9-(3-nitrophenyl-hydrazono-4-oxo-6,7,8,9-tetrahydro-4H--pyrido[1,2-a]-pyrimidine-3-carboxylic acid]
- ED50 [1]: 0.52 µmol/kg

SMILES: CC1CCC(=NNc2cccc(Cl)c2)c2ncc(C(=O)O)c(=O)n21 (centres unmarked) [9-(3-chlorophenylhydrazono)-6-methyl-4-oxo-6,7,8,9-tetrahydro-4H--pyrido[1,2-a]-pyrimidine-3-carboxylic acid]
- ED50 [1]: 0.61 µmol/kg

SMILES: CC1CCC(=NNc2ccc(Br)cc2)c2ncc(C(=O)O)c(=O)n21 (centres unmarked) [9-(4-bromophenylhydrazono)-6-methyl-4-oxo-6,7,8,9-tetrahydro-4H--pyrido[1,2-a]-pyrimidine-3-carboxylic acid]
- ED50 [1]: 0.82 µmol/kg

SMILES: CC1CCC(=NNc2ccc(C(=O)O)cc2)c2ncc(C(=O)O)c(=O)n21 (centres unmarked) [9-(4-carboxyphenyl-hydrazono)-6-methyl-4-oxo-6,7,8,9-tetrahydro-4H--pyrido[1,2-a]pyrimidine-3-carboxylic acid]
- ED50 [1]: 7.6 µmol/kg

SMILES: O=C(O)c1cc(=O)c2c(OCC(O)COc3cccc4oc(C(=O)O)cc(=O)c34)cccc2o1 [Disodium chromoglycate, 1,3-bis-(2-carboxychromon-6-yl-ox)-2-hydroxypropane, reference compound]
- oral activity (PCA test data, in words) ([1]; oral versus i.v.): effective only when administered intravenously
- effectiveness by route (antiasthmatic agent, in words) [2]: not effective orally and it produces the desired effect only by using an inhaler

Reference: patent US4456752A, “Process for the preparation of 9-hydrazono-6,7,8,9-tetrahydro-4H-pyro[1,2-a]pyrimidine-4-one compounds, the salts and hydrates thereof” (Chinoin Gyogyszer es Vegyeszeti Termekek Gyara R.T., priority 1979, dated 1984)
